Assay results: patent publication US12208110B2 (priority 2020, dated 2025)
Read-outs that look alike come from different tables or passages of the source.

Experiments:
Format in all cases: cell-based
[1] = tested on: RSV-Fluc (Recombinant Respiratory Syncytial virus strain A2 containing the firefly luciferase reporter); assay: microbe, parasite or virus in culture; details: read-out: RSV-Fluc EC50 (nM, NHBE)
SARS-CoV-2 = assay: microbe, parasite or virus in culture
MT-4 cells = assay: MT4 cytotoxicity analysis (CellTiter-Glo)
Procedure, shortened: (§1)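 MT-4 cells were exposed in quadruplicate to 3-fold serial compound dilutions (DMSO stocks 2.5 uM to 10 mM) for five days at 37 °C. Viability was read by CellTiter-Glo luminescence.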

[2] = MT4 cytotoxicity analysis (CellTiter-Glo); details: human, MT4 CC50 (nM)
Procedure, shortened: as §1

[3] = human respiratory syncytial virus, NHBE, 72 h
[4] = Severe acute respiratory syndrome coronavirus 2, 48 h
[5] = MT-4 cells, five days, CellTiter-Glo, read-out: MT4 CC50

| Compound | EC50 [1, 3] [nM] | EC50 (SARS-CoV-2; [4]) [µM] | CC50 (MT-4 cells; human, 5 days) [µM] | EC50 ([1]; NHBE cells, RSV-Fluc MOI 0.1, three days, luciferase readout) [nM] | EC50 (SARS-CoV-2) [µM] | CC50 (MT-4 cells; [5]) [µM] | CC50 at 5 days [2] [nM] |
| --- | --- | --- | --- | --- | --- | --- | --- |
| CCCCCCCCCCCCCCCCCCOC[C@@H](OCc1ccccc1)C(C)OP(=O)(O)OC[C@H]1O[C@@](C#N)(c2ccc3c(N)ncnn23)[C@H](O)[C@@H]1O (single isomer, unassigned) [Example 12] | 240 | 8.4 | 10 |  |  |  |  |
| CCCCCCCCCCCCCCCCCCOC[C@@H](OCc1ccccc1)C(C)OP(=O)(O)OC[C@H]1O[C@@](C#N)(c2ccc3c(N)ncnn23)[C@H](O)[C@@H]1O (single isomer, unassigned) [Example 13] |  |  | 29 | 240 | 9.5 |  |  |
| CCCCCCCCCCCCCCCCCCOC[C@H](COP(=O)(O)OC[C@H]1O[C@@](C#N)(c2ccc3c(N)ncnn23)[C@H](O)[C@@H]1O)N(C)Cc1cc(F)cc(C#N)c1 [Example 6, ((2R,3S,4R,5R)-5-(4-aminopyrrolo[2,1-f][1,2,4]triazin-7-yl)-5-cyano-3,4-dihydroxytetrahydrofuran-2-yl)methyl ((R)-2-((3-cyano-5-fluorobenzyl)(methyl)amino)-3-(octadecyloxy)propyl) hydrogen phosphate] | 570 | 10 | 50 |  |  |  |  |
| CCCCCCCCCCCCCCCCCCOC[C@H](COP(=O)(O)OC[C@H]1O[C@@](C#N)(c2ccc3c(N)ncnn23)[C@H](O)[C@@H]1O)OC(=O)c1ccccc1 [Example 17, (2R)-1-(((((2R,3S,4R,5R)-5-(4-aminopyrrolo[2,1-f][1,2,4]triazin-7-yl)-5-cyano-3,4-dihydroxytetrahydrofuran-2-yl)methoxy)(hydroxy)phosphoryl)oxy)-3-(octadecyloxy)propan-2-yl benzoate] | 120 | 0.89 | 50 |  |  |  |  |
| CCCCCCCCCOCCCOP(=O)(O)OC[C@H]1O[C@@](C#N)(c2ccc3c(N)ncnn23)[C@H](O)[C@@H]1O [Example 25, ((2R,3S,4R,5R)-5-(4-Aminopyrrolo[2,1-f][1,2,4]triazin-7-yl)-5-cyano-3,4-dihydroxytetrahydrofuran-2-yl)methyl (3-(nonyloxy)propyl) hydrogen phosphate] | 5000 | 10 |  |  |  | 50 |  |
| CCCCCCCCOCCOP(=O)(O)OC[C@H]1O[C@@](C#N)(c2ccc3c(N)ncnn23)[C@H](O)[C@@H]1O [Example 26, ((2R,3S,4R,5R)-5-(4-Aminopyrrolo[2,1-f][1,2,4]triazin-7-yl)-5-cyano-3,4-dihydroxytetrahydrofuran-2-yl)methyl (2-(octyloxy)ethyl) hydrogen phosphate] | 5000 | 10 |  |  |  | 50 |  |
| CCCCCCCCCCCOCCOP(=O)(O)OC[C@H]1O[C@@](C#N)(c2ccc3c(N)ncnn23)[C@H](O)[C@@H]1O [Example 27, ((2R,3S,4R,5R)-5-(4-Aminopyrrolo[2,1-f][1,2,4]triazin-7-yl)-5-cyano-3,4-dihydroxytetrahydrofuran-2-yl)methyl (2-(undecyloxy)ethyl) hydrogen phosphate] | 5000 | 10 |  |  |  | 50 |  |
| CCCCCCCCCCCCCCCCCCOC[C@H](COP(=O)(O)OC[C@H]1O[C@@](C#N)(c2ccc3c(N)ncnn23)[C@H](O)[C@@H]1O)Oc1ccccc1C(=O)O [Example 38, 2-(((2R)-1-(((((2R,3S,4R,5R)-5-(4-aminopyrrolo[2,1-f][1,2,4]triazin-7-yl)-5-cyano-3,4-dihydroxytetrahydrofuran-2-yl)methoxy)(hydroxy)phosphoryl)oxy)-3-(octadecyloxy)propan-2-yl)oxy)benzoic acid] | 160 |  | 50 |  |  |  |  |
| CCCCCCCCCCCCCCCCSCCCOP(=O)(O)OC[C@H]1O[C@@](C#N)(c2ccc3c(N)ncnn23)[C@H](O)[C@@H]1O [Example 65, [(2R,3S,4R,5R)-5-(4-Aminopyrrolo[2,1-f][1,2,4]triazin-7-yl)-5-cyano-3,4-dihydroxy-tetrahydrofuran-2-yl]methyl 3-hexadecylsulfanylpropyl hydrogen phosphate] |  |  | 50 |  |  |  |  |
| CCCCCCCCCCCCCCCCCCC[C@H](COCc1ccc(C#N)cc1F)OP(=O)(O)OC[C@H]1O[C@@](C#N)(c2ccc3c(N)ncnn23)[C@H](O)[C@@H]1O [Example 69, ((2R,3S,4R,5R)-5-(4-aminopyrrolo[2,1-f][1,2,4]triazin-7-yl)-5-cyano-3,4-dihydroxytetrahydrofuran-2-yl)methyl ((R)-1-((4-cyano-2-fluorobenzyl)oxy)henicosan-2-yl) hydrogen phosphate] | 400 | 10 |  |  |  |  | 48000 |
| CCCCCCCCCCCCCCCCCCC[C@H](COP(=O)(O)OC[C@H]1O[C@@](C#N)(c2ccc3c(N)ncnn23)[C@H](O)[C@@H]1O)OCc1ccc(C#N)c(F)c1 [Example 71, ((2R,3S,4R,5R)-5-(4-aminopyrrolo[2,1-f][1,2,4]triazin-7-yl)-5-cyano-3,4-dihydroxytetrahydrofuran-2-yl)methyl ((R)-2-((4-cyano-3-fluorobenzyl)oxy)henicosyl) hydrogen phosphate] | 68 | 0.079 |  |  |  |  | 900 |
| CCCCCCCCCCCCCCCCCCC[C@H](COP(=O)(O)OC[C@H]1O[C@@](C#N)(c2ccc3c(N)ncnn23)[C@H](O)[C@@H]1O)OCc1ccccc1 [Example 72, ((2R,3S,4R,5R)-5-(4-aminopyrrolo[2,1-f][1,2,4]triazin-7-yl)-5-cyano-3,4-dihydroxytetrahydrofuran-2-yl)methyl ((R)-2-(benzyloxy)henicosyl) hydrogen phosphate] | 190 | 1.1 |  |  |  |  | 3800 |
| CCCCCCCCCCCCCCC#CC[C@H](COP(=O)(O)OC[C@H]1O[C@@](C#N)(c2ccc3c(N)ncnn23)[C@H](O)[C@@H]1O)OCc1ccccc1 [Example 73, ((2R,3S,4R,5R)-5-(4-aminopyrrolo[2,1-f][1,2,4]triazin-7-yl)-5-cyano-3,4-dihydroxytetrahydrofuran-2-yl)methyl ((R)-2-(benzyloxy)nonadec-4-yn-1-yl) hydrogen phosphate] | 58 | 0.43 |  |  |  |  | 3500 |
| CCCCCCCCCCCCCCC#CC[C@H](COP(=O)(O)OC[C@H]1O[C@@](C#N)(c2ccc3c(N)ncnn23)[C@H](O)[C@@H]1O)OCc1cc(F)cc(C#N)c1 [Example 74, ((2R,3S,4R,5R)-5-(4-aminopyrrolo[2,1-f][1,2,4]triazin-7-yl)-5-cyano-3,4-dihydroxytetrahydrofuran-2-yl)methyl ((R)-2-((3-cyano-5-fluorobenzyl)oxy)nonadec-4-yn-1-yl) hydrogen phosphate] | 24 | 0.19 |  |  |  |  | 300 |
| CCCCCCCCCCCCCCC#CC[C@H](COP(=O)(O)OC[C@H]1O[C@@](C#N)(c2ccc3c(N)ncnn23)[C@H](O)[C@@H]1O)OCc1ccc(C#N)c(F)c1 [Example 75, ((2R,3S,4R,5R)-5-(4-aminopyrrolo[2,1-f][1,2,4]triazin-7-yl)-5-cyano-3,4-dihydroxytetrahydrofuran-2-yl)methyl ((R)-2-((4-cyano-3-fluorobenzyl)oxy)nonadec-4-yn-1-yl) hydrogen phosphate] | 17 | 0.072 |  |  |  |  | 230 |
